Experimental data: PubChem BioAssay (NCI)
Values joined by “and” are separate entries in the source; they are usually repeats but may differ in a detail not shown here. Equal entries are not always repeated.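 A five-concentration, 48-hour dose response in 96-well plates underlies each endpoint, interpolated linearly between surrounding concentrations. The concentration for 50% growth inhibition is given as GI50. Definition used: TGI = concentration required for complete inhibition of growth.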

Experiments:
Experiment in all cases: inhibition of tumour cell growth, NCI panel, 48 h
786-0 renal = test system: 786-0 renal
ACHN renal = test system: ACHN renal
CCRF-CEM leukemia = test system: CCRF-CEM leukemia
HOP-92 NSCLC = test system: HOP-92 NSCLC
MCF7 breast = test system: MCF7 breast
NCI-H460 lung = test system: NCI-H460 lung
SK-MEL-5 melanoma = test system: SK-MEL-5 melanoma
UACC-257 melanoma = test system: UACC-257 melanoma
UACC-62 melanoma = test system: UACC-62 melanoma
UO-31 renal = test system: UO-31 renal

SMILES | GI50 (786-0 renal) | TGI (786-0 renal) | GI50 (ACHN renal) | TGI (ACHN renal) | GI50 (CCRF-CEM leukemia) | TGI (CCRF-CEM leukemia) | GI50 (HOP-92 NSCLC) | TGI (HOP-92 NSCLC) | GI50 (MCF7 breast) | TGI (MCF7 breast) | GI50 (NCI-H460 lung) | TGI (NCI-H460 lung) | GI50 (SK-MEL-5 melanoma) | TGI (SK-MEL-5 melanoma) | GI50 (UACC-257 melanoma) | TGI (UACC-257 melanoma) | GI50 (UACC-62 melanoma) | TGI (UACC-62 melanoma) | GI50 (UO-31 renal) | TGI (UO-31 renal)
COC(=O)[C@]12CC[C@@H](C)[C@H](C)[C@@H]1C1=CC[C@@H]3[C@@]4(C)C=C(O)C(=O)C(C)=C4CC[C@@]3(C)[C@]1(C)CC2 | 16.4 µM | 32.6 µM | 5.4 µM | 19.3 µM | 5.26 µM | 23.4 µM | 11.6 µM | 26.2 µM | 10.8 µM | 26.9 µM | 18.9 µM | 37.3 µM | 15.4 µM | 28.8 µM | 20 µM | 42.2 µM | 14.5 µM | 31.3 µM | 11.6 µM | 26.3 µM
CCc1nc(N)nc(N)c1-c1ccc(Cl)c(N=NN(C)C)c1 | – | > 95.7 µM | – | > 89.7 µM | – | > 73.2 µM | – | > 100 µM | – | > 81.6 µM | – | 40.5 µM | – | 50.2 µM | – | > 100 µM | – | 76.8 µM | – | > 70.4 µM
COc1ccc(-c2nn(-c3cccc(NC(=O)Nc4cccc(C(F)(F)F)c4)c3)cc2-c2ccncc2)cc1Cl | 2.28 µM | 10.1 µM | 1.88 µM | > 100 µM | 1.54 µM | 7.59 µM | 0.229 µM | 3 µM | 1.91 µM | > 100 µM | 1.76 µM | 11.5 µM | 1.57 µM | 3.22 µM | 2.28 µM | 10.8 µM | 2.02 µM | 5.59 µM | 1.48 µM | > 100 µM
C[C@@]12CCC[C@@](C)(C(=O)O)C1CC[C@@]13CC(=O)[C@@](CO)(CCC12)C3 (some centres not stated) | > 100 µM | > 100 µM | > 100 µM | > 100 µM | > 100 µM | > 100 µM | > 100 µM | > 100 µM | > 100 µM | > 100 µM | > 100 µM | > 100 µM | > 100 µM | > 100 µM | > 100 µM | > 100 µM | > 100 µM | > 100 µM | > 100 µM | > 100 µM
C=C1C(=O)O[C@H]2[C@H]1CC(=O)/C(C)=C\CC[C@@]1(C)O[C@@H]21 | 1.06 µg/mL | 4.51 µg/mL | 0.822 µg/mL | 2.38 µg/mL | 0.443 µg/mL | 1.4 µg/mL | 1.94 µg/mL | 4.32 µg/mL | 1.77 µg/mL | 10.1 µg/mL | 3.83 µg/mL | 8.08 µg/mL | 2.99 µg/mL | 8.73 µg/mL | 3.39 µg/mL | 6.99 µg/mL | 2.75 µg/mL | 6.02 µg/mL | 2.61 µg/mL | 5.85 µg/mL
CCN1CCCCC(=N\O)/C(=N/O)CCCC1 | – | > 100 µM | – | > 100 µM | – | > 100 µM | – | > 100 µM | – | > 100 µM | – | > 100 µM | – | > 100 µM | – | > 100 µM | – | > 100 µM | – | > 100 µM
Nc1nc(Nc2ccc3c(c2)CCC(N2CCCC2)CC3)nn1-c1cc2c(nn1)-c1ccccc1CCC2 (configuration not stated) | 1.1 µM | 2.49 µM | 0.346 µM | 1.59 µM | 1.24 µM | 4.67 µM | 0.234 µM | 1.69 µM | 1.35 µM | 2.79 µM | 1.08 µM | 2.63 µM | 1.45 µM | 2.78 µM | 1.7 µM | 3.36 µM | 1.5 µM | 3.07 µM | 0.668 µM | 2.13 µM
Nc1c(O)c(S(=O)(=O)O)c(O)c2c1C(=O)c1ccccc1C2=O | 4.73 µM | 41.3 µM | 2.43 µM | 6.8 µM | 3.1 µM | 11 µM | 1.5 µM | 4.65 µM | 2.5 µM | 8.13 µM | 2.86 µM | 22 µM | 1.97 µM | 4.07 µM | 2.38 µM | 6.33 µM | 3.21 µM | 65.6 µM | 2.47 µM | 9.13 µM
COc1cccc(C2C(C#N)=C(N)Oc3cc(OC)ccc32)c1 (configuration not stated) | 0.0556 µM | > 66.8 µM | 0.138 µM | > 100 µM | 0.0328 µM | > 45.7 µM | 0.0822 µM | 25.2 µM | 0.0211 µM | > 72.4 µM | 0.0353 µM | 3.64 µM | 0.0455 µM | 1.69 µM | 1.1 µM | > 83.9 µM | 0.0682 µM | > 94.9 µM | 0.0572 µM | 31.1 µM
N#Cc1ccc2oc3ccc(C#N)cc3c(=O)c2c1 | – | 68 µM | – | > 100 µM | – | 74 µM | – | > 100 µM | – | 94.8 µM | – | 37.4 µM | – | 17.6 µM | – | > 100 µM | – | 41.6 µM | – | > 100 µM
Oc1ccc(-c2nc3ccc4[nH]ncc4c3c3c2CCCC3)c2cccnc12 | 0.435 µM | 3.95 µM | 0.181 µM | 3.07 µM | 0.204 µM | 11.8 µM | 0.11 µM | 0.794 µM | 0.179 µM | 2.89 µM | 0.122 µM | 0.863 µM | 0.597 µM | 1.56 µM | 0.888 µM | 3.68 µM | 0.512 µM | 1.97 µM | 0.128 µM | 0.934 µM
COc1cc(/C=C/C(=O)c2cc(OC)c(OC)c(OC)c2)cc(OC)c1OC | 3.07 µM | 11.3 µM | 4.73 µM | 46.8 µM | 2.25 µM | > 100 µM | 2.53 µM | 20.5 µM | 3.05 µM | 15.3 µM | 1.89 µM | 4.07 µM | 8.33 µM | 21.1 µM | 4.35 µM | 34.6 µM | 5.93 µM | 20.4 µM | 2.05 µM | 12.1 µM
C=CCNc1cccc2c1C(=O)c1ccccc1C2(O)CC=C (configuration not stated) | 19.8 µM | 36.9 µM | 28.5 µM | 65.3 µM | 22.6 µM | 52 µM | 27.4 µM | 55.4 µM | 66.7 µM | > 100 µM | 56 µM | > 100 µM | 16 µM | 30.2 µM | 15 µM | 39 µM | 10.6 µM | 24.4 µM | 27.7 µM | > 100 µM
C=C1C(=O)O[C@H]2[C@H]1CC/C(COC(=O)C(=O)c1cn(C)c3ccc(OC)cc13)=C\CC[C@@]1(C)O[C@@H]21 | 3.84 µM | 7.56 µM | 3.18 µM | 7.79 µM | 2.39 µM | 22.4 µM | 1.27 µM | 3.17 µM | 2.8 µM | 16.4 µM | 7.2 µM | 14.4 µM | 4.03 µM | 7.56 µM | 4.82 µM | 9.73 µM | 2.8 µM | 7.08 µM | 2.42 µM | 6.02 µM
Cc1nc2ccc(NCCN(C)C)c3c(=O)c4cc(O)ccc4n1c23 | – | 10.5 µM | – | 1.94 µM | – | 2.5 µM | – | 6.96 µM | – | 11.5 µM | – | 1.39 µM | – | 10.5 µM | – | 13.6 µM | – | 5.63 µM | – | 9.14 µM
O=C1C(=O)c2c(nc3ncccn23)-c2ccccc21 | 0.304 µM | 0.766 µM | 0.174 µM | 0.373 µM | 0.328 µM | 3.45 µM | 0.271 µM | 1 µM | 0.179 µM | 0.406 µM | 0.227 µM | 0.526 µM | 0.167 µM | 0.304 µM | 0.175 µM | 0.339 µM | 0.177 µM | 0.326 µM | 0.187 µM | 0.405 µM
COc1ccc(Cn2cc(Cn3c(=O)c(-c4nc5ccccc5[nH]4)cc4ccccc43)nn2)c(OC)c1OC | 0.457 µM | 2.86 µM | 0.476 µM and 0.68 µM | 1.67 µM and 4.17 µM | 0.174 µM and 0.443 µM | – | 0.48 µM and 0.39 µM | 1.92 µM and 9.69 µM | 0.0789 µM and 0.0495 µM | – | 0.18 µM | 0.893 µM | 0.307 µM and 0.274 µM | 1.04 µM and 1.45 µM | 0.796 µM and 2.22 µM | – | 0.672 µM | 5.42 µM | 0.576 µM and 0.749 µM | 1.78 µM and 4.63 µM
